Reference: patent US8966812B2, “Trap for bed bugs and the like” (Susan McKnight, Inc., priority 2007, dated 2015)

Experiments:
Assay type in all cases: in vivo, cimex lectularius
bed bugs [1] = experiment: Example 3: carbon dioxide synergism with experimental lure composition, climb-up pitfall trap in infested apartment building, 14 days
Procedure: A molded polypropylene dog dish was turned upside down to form the climb-up pitfall trap 1 as described in Example 2. The trap 1 was positioned on the floor of an apartment building known to be infested by bed bugs, and was tested without any lure. This served as the control test illustrated as Test 6 in FIG. 7. The trap was loaded with a heat blanket (heat source 8). The heat blanket generated temperatures of 44.8 to 47.3 degrees Celsius (112.6 to 117.1 degrees Fahrenheit). The trap 1 with heat source 8 was tested with results shown as Test 2 in FIG. 7. The trap was then loaded with a flexible tube connected to a 5 lbs. compressed carbon dioxide cylinder (carbon dioxide source 9). The carbon cylinder emitted 500 ml/min of carbon dioxide through a tube to the area over the center stage 7 of the trap. The trap with carbon dioxide source 9 was tested with the results shown as Test 4 in FIG. 7. The trap was then loaded with an experimental lure comprising: 100 micrograms of L-lactic acid, 33 micrograms of propionic acid, 0.33 micrograms of butyric acid, 0.33 micrograms of valeric acid and 100 micrograms of octenol (i.e., “lure composition 10”), the experimental lure being combined in a fragrance releasing gel. The trap with experimental lure (lure composition 10) was tested with the results indicated in Test 5 of FIG. 7. […]

bed bugs [2] = experiment: Example 2: climb-up pitfall trap with heat source and lures incl. experimental lure composition, infested apartment building, 14 days; details: trap with heat source plus lure, tested several times for 14 days, FIG. 6
Excerpt: A molded polypropylene dog dish was turned upside down to form climb-up pitfall trap 1 as described in Example 1. The exterior surface 2 was covered with Pellon® featherweight fusible interfacing to form a climbing surface. […] The trap 1 was positioned on the floor of an apartment building known to be infested by bed bugs. As indicated in the bar chart of FIG. 6, the trap 1 was loaded with a heat blanket (heat source 8). The heat blanket generated temperatures of 44.8 to 47.3 degrees Celsius (112.6 to 117.1 degrees Fahrenheit). The trap with heat source 8 was tested several times for 14 days with a modest mean trap count. This test served as a control test. The trap was then loaded with an octenol lure without L-lactic acid. The heat blanket again generated heat. […] The trap was then loaded with an octenol and L-lactic acid lure, in place of the octenol lure. The heat blanket again generated heat. […] The trap was then loaded with an experimental lure consisting of a combination of 100 micrograms of L-lactic acid, 33 micrograms of propionic acid, 0.33 micrograms of butyric acid, 0.33 micrograms of valeric acid and 100 micrograms of octenol (lure composition 10), the experimental lure being combined in a fragrance releasing gel. The heat blanket again generated heat. […]

bed bugs [3] = experiment: Example 1: climb-up pitfall trap with heat source and lures in an infested apartment building, 14 days; details: trap with heat source 44.8 to 47.3 degrees Celsius plus lure, FIG. 5
Excerpt: The exterior surface 2 was covered with cloth, the cloth being attached by masking tape, to form a climbing surface. Precipice 3 was formed by the outer edge of the dog dish. Interior surface 4 was formed by the underside of the outer rim of the dog dish which faces upward when the dog dish is turned upside down. Receptacle 5 was formed along the inside of the precipice 3 by the interior surface 4 and the retaining surface 6, effectively forming a capture moat area. The retaining surface 6 was formed by the underside of the inner bowl walls of the dog dish. Center stage 7 was formed by the underside of the bowl portions of the dog dish. The trap 1 was positioned on the floor of an apartment building known to be infested by bed bugs. Referring to the chronological chart of FIG. 5, the trap 1 was initially loaded with a heat blanket (heat source 8) alone. The heat blanket generated temperatures of 44.8 to 47.3 degrees Celsius (112.6 to 117.1 degrees Fahrenheit). The trap 1 with heat source 8 was tested for 14 days. The trap 1 was then loaded with an octenol lure in addition to the heat source 8, but excluding lactic acid. The heat blanket again generated heat. The trap 1 was then loaded with an octenol and L-lactic acid lure as described above, in place of the octenol lure. The heat blanket again generated heat.

Compound | number of bed bugs caught, times the control (trap only) (bed bugs [1]; carbon dioxide 500 ml/min alone, Test 4 of FIG. 7) | number of bed bugs caught, times the control test (trap only) (bed bugs [1]; heat source plus carbon dioxide 500 ml/min, Test 3 of FIG. 7) | mean trap count compared with other traps (bed bugs [2]) | bed bugs caught compared with control test (trap with heat source alone) (bed bugs [3])
O=C=O [carbon dioxide source 9, carbon dioxide] | ~3 times | ~4 times |  | 
C=CC(O)CCCCC (stereo not shown) [octenol lure, 1-octen-3-ol] |  |  | less effective results than heat alone | caught more bugs
